Data from ChEMBL document CHEMBL1201862, “PubChem BioAssay data set” (2004).
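Five compound concentrations were applied to cells in 96-well plates for 48 hours; endpoints were derived by simple linear interpolation of the resulting dose-response curve. At the GI50, growth is halved.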 Active and inactive are the calls of the source. Rule as the data show it: active = GI50 up to about 1.1 µM and inactive = higher.

Tests used:
Assay in all cases: NCI-60 cell line screen, 48 h
UACC-257 = tested on: UACC-257
TK-10 = tested on: TK-10
NCI-H522 = tested on: NCI-H522
OVCAR-4 = tested on: OVCAR-4
SK-MEL-28 = tested on: SK-MEL-28
UACC-62 = tested on: UACC-62
EKVX = tested on: EKVX
KM12 = tested on: KM12
CCRF-CEM = tested on: CCRF-CEM
NCI-H226 = tested on: NCI-H226
SK-OV-3 = tested on: SK-OV-3
LOX IMVI = tested on: LOX IMVI
SF-295 = tested on: SF-295
IGROV-1 = tested on: IGROV-1
NCI-H23 = tested on: NCI-H23
OVCAR-5 = tested on: OVCAR-5
HCT-116 = tested on: HCT-116
NCI-H460 = tested on: NCI-H460

Measured: GI50

CN(C)/C(=N/C(=O)Nc1ccccc1)SCc1ccccc1
inactive: UACC-257 > 100 µM | TK-10 > 100 µM | NCI-H522 91.2 µM | OVCAR-4 > 100 µM | SK-MEL-28 > 100 µM | UACC-62 > 100 µM | EKVX > 100 µM | KM12 > 100 µM | CCRF-CEM > 100 µM | NCI-H226 > 100 µM | SK-OV-3 > 100 µM | LOX IMVI > 100 µM | SF-295 > 100 µM | IGROV-1 > 100 µM | NCI-H23 > 100 µM | OVCAR-5 > 100 µM

CC1=NN(C(=O)CC(=O)Nc2ccccc2F)C(=O)C1/N=N/c1ccccc1[N+](=O)[O-] (centres undefined)
inactive: UACC-257 97.3 µM | TK-10 > 100 µM | NCI-H522 51.8 µM | OVCAR-4 70.6 µM | SK-MEL-28 > 100 µM | UACC-62 26.2 µM | EKVX 26.5 µM | KM12 > 100 µM | CCRF-CEM 79.6 µM | NCI-H226 > 100 µM | SK-OV-3 > 100 µM | SF-295 > 100 µM | IGROV-1 > 100 µM | NCI-H23 94.6 µM | OVCAR-5 > 100 µM | HCT-116 > 100 µM

CC1(Cl)C(=O)NC(=O)N(C2CC(N=[N+]=[N-])C(CO)O2)C1N=[N+]=[N-] (centres undefined)
inactive: UACC-257 > 100 µM | TK-10 > 100 µM | NCI-H522 > 100 µM | OVCAR-4 > 100 µM | SK-MEL-28 > 100 µM | UACC-62 > 100 µM | EKVX > 100 µM | KM12 > 100 µM | CCRF-CEM > 100 µM | NCI-H460 > 100 µM | SK-OV-3 > 100 µM | LOX IMVI > 100 µM | SF-295 > 100 µM | IGROV-1 > 100 µM | NCI-H23 > 100 µM | OVCAR-5 > 100 µM

O=C(O)CC12C3C4C5C3C1C5C42 (centres undefined)
inactive: UACC-257 > 100 µM | TK-10 > 100 µM | NCI-H522 > 100 µM | OVCAR-4 > 100 µM | SK-MEL-28 > 100 µM | UACC-62 > 100 µM | EKVX > 100 µM | KM12 > 100 µM | CCRF-CEM > 100 µM | NCI-H460 > 100 µM | SK-OV-3 > 100 µM | LOX IMVI > 100 µM | SF-295 > 100 µM | IGROV-1 > 100 µM | NCI-H23 > 100 µM | OVCAR-5 > 100 µM | HCT-116 > 100 µM

O=C/C1=C/C2=Cc3ccccc3C=C(/C=C(/C=O)C1)C2
inactive: UACC-257 30.9 µM | TK-10 > 100 µM | NCI-H522 > 100 µM | OVCAR-4 46.7 µM | SK-MEL-28 39.6 µM | UACC-62 73.6 µM | EKVX > 100 µM | KM12 36.1 µM | CCRF-CEM 16.2 µM | NCI-H460 81.1 µM | NCI-H226 43.2 µM | LOX IMVI 33.9 µM | SF-295 29 µM | IGROV-1 > 100 µM | NCI-H23 32.9 µM | OVCAR-5 > 100 µM | HCT-116 19.4 µM

CCN(CC)c1c(C)nnn1C1OC(COC(C)=O)C(OC(C)=O)C(OC(C)=O)C1OC(C)=O (centres undefined)
inactive: UACC-257 > 100 µM | TK-10 > 100 µM | NCI-H522 > 100 µM | OVCAR-4 > 100 µM | SK-MEL-28 > 100 µM | UACC-62 > 100 µM | EKVX > 100 µM | KM12 > 100 µM | CCRF-CEM > 100 µM | NCI-H460 > 100 µM | NCI-H226 > 100 µM | SK-OV-3 > 100 µM | SF-295 > 100 µM | IGROV-1 > 100 µM | NCI-H23 > 100 µM | OVCAR-5 > 100 µM | HCT-116 > 100 µM
